Reference: patent US6103732A, “Carboxylic acid derivatives, their production and use” (BASF Aktiengesellschaft, priority 1996, dated 2000)
Where two headings read alike, the source gives them in different places.

Legend:
[1] = target: T1, ETB receptor (Cavia porcellus, UniProt H0VTF3); assay: Receptor binding assay, ETB ([125I]-RZ3, guinea pig cerebellar membranes)
T1 construct: Guinea pig cerebella were homogenized in a Potter-Elvejhem homogenizer; from tissue; host or cells: guinea pig cerebellum (membranes)
T1 sequence (H0VTF3 27-415): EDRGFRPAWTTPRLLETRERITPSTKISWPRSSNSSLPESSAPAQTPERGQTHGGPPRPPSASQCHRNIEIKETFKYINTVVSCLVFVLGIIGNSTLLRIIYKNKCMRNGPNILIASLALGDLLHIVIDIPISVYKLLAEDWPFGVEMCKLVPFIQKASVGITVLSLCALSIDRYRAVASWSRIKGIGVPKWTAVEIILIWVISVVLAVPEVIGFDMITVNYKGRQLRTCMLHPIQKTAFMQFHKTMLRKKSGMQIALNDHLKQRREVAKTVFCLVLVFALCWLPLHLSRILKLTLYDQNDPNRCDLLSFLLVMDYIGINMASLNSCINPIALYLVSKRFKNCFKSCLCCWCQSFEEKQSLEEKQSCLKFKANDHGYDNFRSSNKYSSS
Protocol: (§1) Cloned human ETA receptor-expressing CHO cells and guinea pig cerebellar membranes with >60% ETB compared with ETA receptors were used for binding studies.
Guinea pig cerebella were homogenized in a Potter-Elvejhem homogenizer and were obtained by differential centrifugation at 1,000×g for 10 min and repeated centrifugation of the supernatent at 20,000×g for 10 min.
(§2) The nonspecific binding was determined with 10^-7 M ET1. After 30 min, filtration was carried out through GF/B glass fiber filters (Whatman, England) in a Skatron cell collector (Skatron, Lier, Norway) to separate free and bound radioligands, and the filters were washed with ice-cold tris-HCl buffer, pH 7.4 with 0.2% BSA. The radioactivity collected on the filters was quantified using a Packard 2200 CA liquid scintillation counter.

[2] = target: T2, human ETA receptor (Homo sapiens, UniProt P25101); assay: Receptor binding assay, ETA ([125I]-ET1, membranes of ETA receptor-expressing CHO cells)
T2 construct: expressed in transfected cells; host or cells: CHO cells
T2 sequence (P25101 21-427): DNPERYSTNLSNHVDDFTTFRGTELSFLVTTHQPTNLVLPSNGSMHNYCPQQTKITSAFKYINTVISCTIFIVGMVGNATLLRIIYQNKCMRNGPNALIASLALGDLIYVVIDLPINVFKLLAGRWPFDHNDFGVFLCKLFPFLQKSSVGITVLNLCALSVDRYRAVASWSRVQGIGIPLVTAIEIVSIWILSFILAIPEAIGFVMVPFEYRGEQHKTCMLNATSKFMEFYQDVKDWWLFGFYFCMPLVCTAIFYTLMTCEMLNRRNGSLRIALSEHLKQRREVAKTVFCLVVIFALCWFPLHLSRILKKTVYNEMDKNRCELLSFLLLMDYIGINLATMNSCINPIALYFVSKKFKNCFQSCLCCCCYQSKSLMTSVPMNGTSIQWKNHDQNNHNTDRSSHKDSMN
Protocol: as §1
The ETA receptor-expressing CHO cells were grown in F12 medium containing 10% fetal calf serum, 1% glutamine, 100 E/ml penicillin and 0.2% streptomycin (Gibco BRL, Gaithersburg, Md., USA). After 48 h, the cells were washed with PBS and incubated with 0.05% trypsin-containing PBS for 5 min. Neutralization was then carried out with F12 medium and the cells were collected by centrifugation at 300×g. To lyse the cells, the pellet was briefly washed with lysis buffer (5 mM tris-HCl, pH 7.4 with 10% glycerol) and then incubated at a concentration of 10^7 cells/ml of lysis buffer at 4° C. for 30 min. The membranes were centrifuged at 20,000×g for 10 min, and the pellet was stored in liquid nitrogen.
as §2

[3] = guinea pig cerebellar membranes (>60% ETB compared with ETA receptors), 25 pM [125I]-RZ3, 30 min, read-out: Receptor binding data (Ki values) ETB
[4] = cloned human ETA receptor-expressing CHO cell membranes, 25 pM [125I]-ET1, 30 min, read-out: Receptor binding data (Ki values) ETA

| Ki [1, 3] | Ki [2, 4] | Compound | Ki [1] | Ki [2] |
| --- | --- | --- | --- | --- |
| > 7 µM | 3 µM | COC(c1ccccc1)(c1ccccc1)C(Oc1ccc2ccccc2n1)C(=O)O (centres unmarked) [Compound I-167] |  |  |
|  |  | COc1cc(OC(C(=O)O)C(OC)(c2ccccc2)c2ccccc2)nc(OC)n1 (centres unmarked) [Compound I-1, 2-(2,6-Dimethoxy-4-pyrimidinyloxy)-3-methoxy-3,3-diphenyl-propionic acid] | 8 µM | 0.038 µM |
| 4 µM | 0.5 µM | COC(c1ccccc1)(c1ccccc1)C(Oc1cc(C)c2ccccc2n1)C(=O)O (centres unmarked) [Compound I-166, 2-(4-Methyl-2-quinolinyloxy)-3-methoxy-3,3-diphenylpropionic acid] |  |  |
| > 10 µM | 3.3 µM | COC(c1ccccc1)(c1ccccc1)C(Oc1cc(C(F)(F)F)nc(C(C)(C)C)n1)C(=O)O (centres unmarked) [Compound I-91, 2-(2-tert-Butyl-6-trifluoromethyl-4-pyrimidinyloxy)-3-methoxy-3,3-diphenylpropionic acid] |  |  |
